# Test results from patent US5506215A, “1-(3'-fluoro-2',3'-dideoxy-β-D-ribofuranosyl)-5-substituted pyrimidine nucleosides” (Medivir AB, priority 1987, dated 1996).
# Values joined by “and” are separate entries in the source; they are usually repeats but may differ in a detail not shown here. Equal entries are not always repeated. Where two headings read alike, the source gives them in different places.
# Experiments:
# HIV (HTLV-IIIB) = assay: Test I, effect of compounds on HIV in H9 cells (HIV antigen containing cells); assay type: cell-based; settings: read-out: Concentration for 50% inhibition (IC50) of human immuno deficiency virus multiplication in cell culture
# Method: Materials and methods: HIV infection of H9 cells
# H9 cells, 10^5 cells per well on a 24 well plate, suspended in 2 ml RPMI-medium containing 10% fetal calf serum, 100 μg/ml penicillin, 10 μg/ml streptomycin sulfate and 2μg/ml polybrene are exposed to HIV (HTLV-IIIB) and different concentrations of the test compounds. The plates are incubated at 37° C. in 5% CO2 for 6-7 days. The contents in each well is then homogenized with a pipette and transferred to a centrifuge tube. After centrifugation for 10 min at 1500 rpm the supernatant is removed and the cell pellet is analyzed by fixing in methanol on glass plates. Human HIV positive serum diluted 1:80 or 1:160 is added and incubated for 30 min at 37° C. The plate is then washed with phosphate-buffered saline (PBS) containing Ca^2+ and Mg^2+. Sheep antihuman conjugate (FITC) is added and after a new incubation the plate is again washed with PBS. Contrast staining is done with Evans blue and after drying the frequency of HIV antigen containing cells is determined in a microscope.
# [1] = Test II, cellular toxicity, F5000 cells; assay type: cell-based; settings: human, read-out: % inhibition of cell multiplication
# Method: (§1) F5000 cells, which are human embryo cells, 1×10^5 cells per plate, are incubated in Eagle's minimal essential medium, supplemented with Earle's salts, non-essential amino acids, 10% fetal calf serum, 10 mM hopes, 70 mg/l penicillin and 100 mg/l streptomycin, in absence or presence of test compounds. The number of cells per plate is determined after 48 h. Cells incubated in the absence of test compounds underwent one cell division cycle.
# [2] = Test II, cellular toxicity, H9 cells; assay type: cell-based; settings: human, read-out: % inhibition of cell multiplication
# Method: H9 cells, 2×10^7 cells per plate, are incubated in […] medium containing 10% fetal calf serum, 70 mg/l penicillin, 100 mg/l streptomycin and 10 mM hepes, in absence or presence of test compounds. The number of cells per plate is determined after 48 h. Cells incubated in the absence of test compounds then underwent two cell division cycles.
# as §1
# HIV [3] = assay: Inhibition of HIV multiplication in cell culture, H9 cells (Koshida et al. method); assay type: cell-based; settings: for inhibition at 0.1 µg/mL: Human immunodeficiency virus 1, H9, 0.1 μg/ml; for inhibition at 1 µg/mL: Human immunodeficiency virus 1, H9, 1 μg/ml; for inhibition at 10 µg/mL: Human immunodeficiency virus 1, H9, 10 μg/ml
# From the text: The activity against human immunodeficiency virus (HIV) has been tested for the compounds listed and the resulting activities are shown in the Table below.
# The data in the Table were gathered and tests performed as described by Koshida et el., "Inhibition of Human Immunodeficiency Virus in vitro by Combination of 3'-Azido-3'-Deoxythymidine and Foscarnet" in Antimicrob Agents and Chemotherapy, Vol 33 (1989) p. 778-780 (on H9 cells for compounds X-XII) and by De Clercq et el, Nucleosides and Nucleotides, Vol 8 (1989) p. 659-671 (on MT4 cells, literature data for compounds XIV-XVI).
# HIV [4] = settings: MT4 cells, literature data, cited from earlier work
# [5] = Human immunodeficiency virus 1, 6-7 days
structure (smiles),measurement,setting,value
"CCc1cn([C@H]2C[C@H](F)[C@@H](CO)O2)c(=O)[nH]c1=O [VSA 410, 1-(3'-F-2',3'-dideoxy-β-D-ribofuranosyl)-5-ethyl-uracil]",IC50,HIV (HTLV-IIIB); [5],< 1000 nM
same,"inhibition at 48 h, 100 µM",[1],25%
same,"inhibition at 48 h, 100 µM",[2]; 100 μM,25%
"CO[C@H]1[C@H](N=[N+]=[N-])[C@@H](CO)O[C@H]1n1cc(C)c(=O)[nH]c1=O [Example XI, 1-(3'-azido-2'-methoxy-2',3'-dideoxy-β-D-arabinofuranosyl)thymine]",% Inhibition of HIV multiplication,HIV [3]; 0.1 μg/ml,32%
same,% Inhibition of HIV multiplication,HIV [3]; 1 μg/ml,38%
same,inhibition at 0.1 µg/mL,HIV [3],27%
same,inhibition at 1 µg/mL,HIV [3],21%
"O=c1[nH]c(=O)n([C@H]2C[C@H](F)[C@@H](CO)O2)cc1I [XV, 5-iodo-1-(3'-fluoro-2',3'-dideoxy-β-D-ribofuranosyl)uracil]",% Inhibition of HIV multiplication,HIV [4]; 0.1 μg/ml,50%
"O=c1[nH]c(=O)n([C@H]2C[C@H](F)[C@@H](CO)O2)cc1Br [XIV, 5-bromo-1-(3'-fluoro-2',3'-dideoxy-β-D-ribofuranosyl)uracil]",% Inhibition of HIV multiplication,HIV [4]; 0.1 μg/ml,50%
"CC(=O)OC[C@H]1O[C@@H](n2cc(C)c(=O)[nH]c2=O)C[C@@H]1F [VSB 423, 1-(5'-acetyl-3'-fluoro-2',3'-dideoxy-β-D-ribofuranosyl)-5-methyluracil]",IC50,HIV (HTLV-IIIB); 6-7 days,< 10 nM
"O=c1ccn([C@H]2C[C@H](F)[C@@H](CO)O2)c(=O)[nH]1 [VSA 417, 1-(3'-F-2',3'-dideoxy-β-D-ribofuranosyl)-uracil]",IC50,HIV (HTLV-IIIB); [5],500 nM
same,"inhibition at 48 h, 100 µM",[1],10%
"C#C[C@H]1C[C@H](n2cc(C)c(=O)[nH]c2=O)O[C@@H]1CO [Example XII, 1-[2,3-Dideoxy-3-C-ethynyl-β-D-erythro-pentofuranosyl]thymine]",inhibition at 1 µg/mL,HIV [3],18%
same,inhibition at 10 µg/mL,HIV [3],54%
"CCCc1cn([C@H]2C[C@H](F)[C@@H](CO)O2)c(=O)[nH]c1=O [VSA 408, 1-(3'-F-2',3'-dideoxy-β-ribofuranosyl)-5-propyl-uracil]",IC50,HIV (HTLV-IIIB); [5],1000 nM
same,"inhibition at 48 h, 100 µM",[1],0%
same,"inhibition at 48 h, 250 µM",[2]; 250 μM,15%
"CO[C@H]1[C@H](F)[C@@H](CO)O[C@H]1n1cc(C)c(=O)[nH]c1=O [Example X, 1-(3'-fluoro-2'-methoxy-2',3'-dideoxy-β-D-arabinofuranosyl)thymine]",% Inhibition of HIV multiplication,HIV [3]; 10 μg/ml,83% and 79%
same,inhibition at 0.1 µg/mL,HIV [3],58%
same,inhibition at 10 µg/mL,HIV [3],85%
O=c1[nH]c(=O)n([C@H]2C[C@H](F)[C@@H](CO)O2)cc1Cl [XVI],% Inhibition of HIV multiplication,HIV [4]; 0.04 μg/ml,50%
